3 molecules from BindingDB's records for doi:10.1016/S1074-5521(03)00159-5 (Merck Research Laboratories, 2003) can be followed below.

Each structure is given as a SMILES string. A value given as a limit tells only on which side of the number the result lay.

In the assay the target is Mitogen-activated protein kinase 14 (Homo sapiens, UniProt Q16539). As to the kind of experiment: Homogeneous Time-Resolved Fluorescence (HTRF) Enzyme Assay. The note with it: pH 7; 22 °C. How it is done:
The HTRF signal is calculated as a ratio of the A-counts to B-counts. The signal produced is proportional to the amount of JNK3 or p38 kinase activity present during the kinase reaction phase.
(In general: Time-resolved FRET reads energy transfer from a long-lived donor to a nearby acceptor.)

Mitogen-activated protein kinase 14, sequence (Q16539 whole entry): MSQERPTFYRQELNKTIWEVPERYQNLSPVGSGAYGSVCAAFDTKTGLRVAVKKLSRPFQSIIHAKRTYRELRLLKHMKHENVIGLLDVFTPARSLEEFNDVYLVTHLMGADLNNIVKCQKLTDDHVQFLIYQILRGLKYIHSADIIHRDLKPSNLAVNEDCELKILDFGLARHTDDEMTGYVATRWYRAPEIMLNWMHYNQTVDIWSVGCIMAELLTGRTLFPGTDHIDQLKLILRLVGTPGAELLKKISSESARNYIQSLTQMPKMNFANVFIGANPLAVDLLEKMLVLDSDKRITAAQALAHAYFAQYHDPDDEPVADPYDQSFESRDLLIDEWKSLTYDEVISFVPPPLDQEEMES

By IC50 is commonly meant the concentration needed to halve the response being measured. A lower IC50 goes with greater potency. As to `CCCn1c(C2CCN(C)CC2)nc(-c2ccc(Cl)c(Cl)c2)c1-c1ccnc(NC2CC2)n1`, the IC50 was determined as 0.078 nM.

As to `CCCn1c(C2CCNCC2)nc(-c2ccc(Cl)c(Cl)c2)c1-c1ccnc(NC2CCCCC2)n1`, the IC50 is 4 nM. Against the preceding molecule, the IC50 is about 51-fold higher.

Turning to `Oc1ccc(-c2cnc3ccc4ccncc4c3c2)cc1` [4-(2,7-phenanthrolin-9-yl)phenol], the IC50 is more than 40000 nM.
